Source: US5264433A, “Benzodiazepine derivatives” (Fujisawa Pharmaceutical Co., Ltd., priority 1988, dated 1993)

Assays:
CCK-A receptor = CCK-A receptor antagonist selectivity (statement only, no method); conditions: statement in words, no data
CCK receptor = CCK receptor antagonism in isolated fundic circular muscle from guinea pig stomach; conditions: test compound 1×10^-5 M added 5 minutes before CCK-8 (3.2×10^-7 M); isolated circular muscle strip
Experimental: CCK receptor antagonism in isolated fundic circular muscle from guinea pig stomach
The strip of circular muscle suspended in 25 ml organ bath containing Kreb's bicarbonate solution (NaCl 118 mM, KCl 4.8 mM, KH2 PO4 1.2 mM, MgSO4 1.2 mM, CaCl2 2.5 mM, NaHCO3 25 mM, glucose 11 mM and bovine serum albumin 0.1%) maintained at 37° C. and gassed with 95% O2 and 5% CO2.
The strip was placed under an initial tension of 0.5 g and equilibrated for 60 minutes during which the bath volume was replaced every 15 minutes. Isometric contraction was measured using a force transducer. CCK-8 (3.2×10^-7 M) was added to the bathing solution and the contractile force was measured. After washing out CCK-8, test compound A (1×10^-5 M) was added. 5 minutes later, CCK-8 was added and the contractile force was measured. CCK antagonism was calculated by comparing the contractile force induced by CCK in the absence or presence of test compound A.

| Structure (SMILES) | CCK-A receptor antagonist selectivity (CCK-A receptor) | Inhibition (%) of CCK-induced contractile force (CCK receptor) |
| --- | --- | --- |
| O=C(N[C@H]1N=C(c2ccccc2)c2ccccc2N(Cc2nnn[nH]2)C1=O)c1cc2ccccc2[nH]1 [Example 42, (3S)-1,3-dihydro-3-(2-indolylcarbonylamino)-5-phenyl-1-[(1 H-tetrazol-5-yl)-methyl]-2H-1,4-benzodiazepin-2-one] | selective CCK-A receptor antagonist | – |
| O=C(NC1N=C(c2ccccc2)c2ccccc2N(CCO)C1=O)c1cc2ccccc2[nH]1 (racemic) [test compound A, (3RS)-1,3-Dihydro-1-(2-hydroxyethyl)-3-(2-indolylcarbonylamino)-5-phenyl-2H-1,4-benzodiazepine-2-one] | – | 91% |
